Source: patent US10052311B2, “PPAR compounds for use in the treatment of fibrotic diseases” (INVENTIVA, priority 2014, dated 2018)

System: anti-GBM exposed mice
Experiment: Anti-GBM induced glomerulonephritis in mice
Type: in vivo, mouse
Conditions: 10 mg/kg/day po 7 days, vs vehicle

Question: What does the source list for `C[C@H](CS)C(=O)N1CCC[C@H]1C(=O)O` [captopril, reference compound]?
Answer: Col1a expression (kidney): had no effect on Col1a expression; Col3a expression (kidney): had no effect on Col3a expression; TGFβR-1 expression (kidney): had no effect on TGFβ-R1 expression; kidney MCP-1 levels: significantly reduced MCP-1 levels; kidney osteopontin levels: significantly reduced osteopontin levels; serum urea levels: reduced urea level without reaching significance; urinary albumin levels: reduced albumin levels without reaching significance
